According to the NIST ThermoML archive (doi:10.1021/acs.jced.9b00752):

Experiment: mn = molality of the nth substance listed, in mol/kg
Settings: 100 kPa, Liquid, Vibrating tube method

N[C@@H](Cc1c[nH]c2ccccc12)C(=O)O [L-tryptophan] + O
mass density [kg/m3]
Settings | m1 = 0.0035 | m1 = 0.009 | m1 = 0.0179 | m1 = 0.0306 | m1 = 0.0352 | m1 = 0.0429 | m1 = 0.0536 | m1 = 0.0595 | m1 = 0.0659 | m1 = 0.0769
273.65 K | 1000.09 | 1000.46 | 1001.04 | 1001.86 | 1002.16 | 1002.66 | 1003.36 | 1003.74 | 1004.14 | 1004.85
274.15 K | 1000.12 | 1000.48 | 1001.06 | 1001.88 | 1002.18 | 1002.68 | 1003.38 | 1003.75 | 1004.16 | 1004.87
274.65 K | 1000.14 | 1000.5 | 1001.08 | 1001.9 | 1002.2 | 1002.7 | 1003.39 | 1003.77 | 1004.17 | 1004.88
275.15 K | 1000.15 | 1000.52 | 1001.09 | 1001.91 | 1002.22 | 1002.71 | 1003.4 | 1003.78 | 1004.18 | 1004.88
275.65 K | 1000.17 | 1000.53 | 1001.11 | 1001.92 | 1002.23 | 1002.72 | 1003.41 | 1003.79 | 1004.19 | 1004.89
276.15 K | 1000.18 | 1000.54 | 1001.11 | 1001.93 | 1002.23 | 1002.73 | 1003.41 | 1003.79 | 1004.19 | 1004.89
276.65 K | 1000.18 | 1000.54 | 1001.12 | 1001.93 | 1002.23 | 1002.72 | 1003.41 | 1003.78 | 1004.19 | 1004.88
277.15 K | 1000.18 | 1000.55 | 1001.12 | 1001.93 | 1002.23 | 1002.72 | 1003.41 | 1003.78 | 1004.18 | 1004.88
277.65 K | 1000.18 | 1000.54 | 1001.11 | 1001.92 | 1002.22 | 1002.72 | 1003.4 | 1003.77 | 1004.17 | 1004.87
278.15 K | 1000.17 | 1000.53 | 1001.1 | 1001.91 | 1002.21 | 1002.7 | 1003.39 | 1003.76 | 1004.16 | 1004.85
278.65 K | 1000.16 | 1000.52 | 1001.09 | 1001.9 | 1002.2 | 1002.69 | 1003.37 | 1003.74 | 1004.14 | 1004.83
279.15 K | 1000.15 | 1000.51 | 1001.08 | 1001.88 | 1002.18 | 1002.67 | 1003.35 | 1003.72 | 1004.12 | 1004.81
279.65 K | 1000.13 | 1000.49 | 1001.06 | 1001.86 | 1002.16 | 1002.65 | 1003.33 | 1003.7 | 1004.09 | 1004.78
280.15 K | 1000.11 | 1000.47 | 1001.03 | 1001.84 | 1002.13 | 1002.62 | 1003.3 | 1003.67 | 1004.07 | 1004.75
280.65 K | 1000.09 | 1000.44 | 1001.01 | 1001.81 | 1002.11 | 1002.59 | 1003.27 | 1003.64 | 1004.03 | 1004.72
281.15 K | 1000.06 | 1000.41 | 1000.98 | 1001.78 | 1002.07 | 1002.56 | 1003.23 | 1003.6 | 1004 | 1004.68
281.65 K | 1000.02 | 1000.38 | 1000.94 | 1001.74 | 1002.04 | 1002.52 | 1003.2 | 1003.56 | 1003.96 | 1004.64
282.15 K | 999.99 | 1000.34 | 1000.9 | 1001.71 | 1002 | 1002.48 | 1003.15 | 1003.52 | 1003.92 | 1004.6
282.65 K | 999.95 | 1000.3 | 1000.87 | 1001.66 | 1001.96 | 1002.44 | 1003.11 | 1003.48 | 1003.87 | 1004.56
283.15 K | 999.908 | 1000.26 | 1000.82 | 1001.62 | 1001.91 | 1002.39 | 1003.06 | 1003.43 | 1003.82 | 1004.5
